What all share (format): in vivo, rat
The test system of one assay is DRN 5-HT1A autoreceptors. The assay is described as follows: Citalopram i.v. dose-response on DRN 5-HT neuron firing (5-HT1A autoreceptor sensitivity) after 3-day RS 67333. The method, then: FIG. 7 is a dose-response curve illustrating the effect of cumulative intravenous doses of citalopram on DRN 5-HT neuron average (mean±S.E.M.) firing rate, expressed as percentage of basal activity, in rats treated with the selective 5-HT4 agonist RS 67333 (1.5 mg/kg/day, 3 days, n=5) or its vehicle (n=5). Single-cell extracellular recordings were performed in the DRN of chloral-hydrate anaesthetized rats by using single-barrel glass microelectrodes, and 5-HT neurons were identified according to the classical criteria (see Example 5, the experimental procedures). RS 67333 was administered through the use of osmotic minipumps, inserted subcutaneously in the region of the back. Recordings were performed with the minipumps still in place.
Extracellular recordings of DRN 5-HT neurons. Recordings were performed using single-barreled glass micropipettes. Electrodes were filled with a 2 M NaCl solution saturated with Fast Green FCF, resulting in an impedance of 2-5 MΩ. Rats were anaesthetized with chloral hydrate (400 mg/kg, i.p.) and placed in a stereotaxic frame. A burr hole was drilled on the midline 1 mm anterior to lambda. DRN 5-HT neurons were encountered over a distance of 1 mm starting immediately below the ventral border of the Sylvius aqueduct. These neurons were identified using the classical criteria: a slow (0.5-2.5 Hz) and regular firing rate and long-duration (0.8-1.2 ms) positive action potentials (Aghajanian, 1978). At the end of the experiments, a 25 μA cathodal current was passed through the recording electrode to leave a Fast Green deposit at the recording site. Animals were sacrificed with an i.v. overdose of chloral hydrate, and the brain removed. The site of recording was verified under microscope immediately after experiments.
Statistical analysis. The comparison between the two slopes in FIG. 7 was performed by using the GraphPad Prism software (Version 3.03, GraphPad Software Inc.). All other statistics were performed by using one-way ANOVAs, followed by the Dunnett's test when multiple comparisons were necessary.
Effect of a 3-day treatment with a 5-HT4 agonist on DRN 5-HT1A autoreceptors sensitivity. […] In rats treated with the selective 5-HT4 agonist RS 67333 (Eglen et al., 1995) (1.5 mg/kg/day), these values were shifted to the right, reaching 226±26 and 430 μg/kg, respectively. […] The acute inhibitory effect produced by a SSRI on DRN 5-HT neuronal activity results from increased extracellular levels of 5-HT, due to the blockade of its reuptake, and is selectively related to the stimulation of somatodendritic 5-HT1A autoreceptors (Hajos et al., 1999). The degree of inhibition induced by citalopram has therefore been used as a reliable index of their sensitivity (Arborelius et al., 1999, 2004; Sanchez et al., 2003). It appears that a 3-day treatment with a 5-HT4 receptor agonist is sufficient to desensitize 5-HT1A autoreceptors in the DRN.

Assay [1] in a line: Forced swimming test (FST). An excerpt: The “forced swimming test” (FST) is a behavioural test for rodents, which predicts the efficacy of antidepressant drugs (Porsolt et al., 1977; Lucki, 1997). […] The widespread use of this model is largely a result of its ease of use, reliability across laboratories and ability to detect a broad spectrum of antidepressant agents. The test is based on the observation that rats, following initial escape-oriented movements (climbing and swimming), develop an immobile posture when placed in an inescapable cylinder of water. If they are replaced in the same testing apparatus 24 h later, they resume this immobile posture quickly. The immobility is thought to reflect either a failure of persistence in escape-directed behavior (i.e. behavioral despair) or the development of passive behavior that disengages the animal from active forms of coping with stressful stimuli. If antidepressant treatments are given between the two exposures, the subjects will actively persist engaging in escape-directed behaviors for longer periods of time than after vehicle treatment. This will be reflected by a reduction of immobility time, and by an increase of climbing attempts. […] The combination effect of a particular 5-HT4 agonist and a SSRI may be evaluated using the FST model.
Experiments were carried out in male Sprague-Dawley rats (Charles River, St Constant, Québec). We used the FST as previously described (Porsolt et al., 1977). Briefly, the rats experienced a pretest session followed 24 hours later by a test session. For both the pretest and the test sessions, conducted under low illumination (12 lx), the rats were placed in a plastic cylindrical tank (50 cm high by 20 cm in diameter) filled with water at […], with a depth of 40 cm, for which the hind limbs could not reach the tank floor. In all experiments, the pretest was carried out for 15 min and the test for 5 min in the same tank but only the last 4 min were analyzed. Following either pretest or test sessions, rats were dried with a towel and kept warm for 30 min before returning in their home cage. A digital camera recorded on line animal's behavior during the FST, and both time of immobility and climbing attempts were counted. Citalopram hydrobromide (10 mg/kg, i.p.) or paroxetine (10 mg/kg, i.p.) and prucalopride hydrochloride (2.5 mg/kg, i.p.) or RS 67333 hydrochloride (1.5 mg/kg, i.p.) were administered simultaneously 30 minutes before the test session. Animals were divided into 4 groups: vehicle/vehicle, 5-HT4 agonist/vehicle, vehicle/SSRI and 5-HT4 agonist/SSRI. For each compound, distilled water was used as the vehicle. All drug dosages refer to the free base.
Behavioral experiments. We used the FST as previously described (Porsolt et al., 1977). Briefly, rats experienced a pre-test session followed 24 hours later by a test session. For both the pre-test and the test sessions, conducted under low illumination (12 lx), the animals were placed in a plastic cylindrical tank (50 cm high by 20 cm in diameter) filled with water at […], with a depth of 40 cm, for which the hind limbs could not reach the tank floor. In all experiments, the pre-test was carried out for 15 min and the test for 5 min in the same tank but the last 4 min only were analyzed. Prucalopride (2.5 mg/kg, i.p.) and RS 67333 (1.5 mg/kg, i.p.) were administered 30 min before the test session. Following either pre-test or test sessions, rats were dried with a towel and kept warm for 30 min before returning in their home cage. A camera coupled with a computer recorded on line animal behavior during the FST through a specialized digital interface (Videotrack, ViewPoint, Lyon, France). This interface underscored on line the subtraction of video frames. Immobility time in FST was derived from the number of frames (every 40 ms) being below a predefined threshold over FST duration.

The subject of assay [2] is hippocampal CA3 pyramidal neurons. The assay is described as follows: Response of hippocampal CA3 pyramidal neurons to WAY 100635 after 3-day treatments (5-HT1A tonus). The method, then:
FIGS. 8A to 8C. […] Single-cell extracellular recordings were performed in the CA3 region of chloral-hydrate anaesthetized rats by using multiple-barrel glass microelectrodes, combined with microiontophoretic pumps (with the central barrel used for recordings). Pyramidal neurons were identified according to the classical criteria (see Example 5, the experimental procedures). The 5-HT4 agonists were administered through the use of osmotic minipumps, inserted subcutaneously in the region of the back. Recordings were performed with the minipumps still in place. *p<0.05, **p<0.01, ***p<0.001 vs control, Dunnett's test. […] FIG. 8C is a typical example showing the response of a single pyramidal neuron to cumulative doses of WAY 100635, in a rat co-administered with RS 67333 (same treatment as above for FIG. 8A) and the 5-HT depleter para-chlorophenylalanine (pCPA; 150 mg/kg, i.p. once daily 72, 48 and 24 h before the recordings).
Drugs and Chemicals. The following compounds were used: GR 125487 sulphamate, prucalopride monohydrochloride, citalopram hydrobromide (gifts from Glaxo, Janssen and Lundbeck laboratories, respectively), RS 67333 hydrochloride (Tocris Cookson Inc., Ellisville, Mo., USA), WAY 100635 hydrochloride (Research Biochemicals, Natick, Mass., USA), pCPA methyl ester hydrochloride, BrdU (Sigma-Aldrich Canada, Oakville, Ontario, Canada). All compounds were diluted in distilled water. All drug dosages refer to the free base. For chronic treatments, prucalopride (2.5 mg/kg/day), RS 67333 (1.5 mg/kg/day) or the vehicle were delivered through osmotic minipumps (Alza, Palo Alto, Calif., USA), inserted subcutaneously in the region of the back under short-duration (≦5 min) halothane anesthesia. The 5-HT depleter PCPA was administered once daily at the dose of 150 mg/kg, i.p., 72, 48 and 24 h before the recordings. BrdU treatments consisted of two administrations per day (50 mg/kg, i.p. each, 8 h interval), starting from the day of minipump insertion until day 2 post-surgery.
(§1) Microiontophoresis and extracellular recordings from hippocampal CA3 pyramidal neurons. Recording and microiontophoresis were performed with five-barreled glass micropipettes broken back to 8-12 μm under microscope control. The central barrel was filled with the same solution as in the DRN and was used for extracellular unitary recordings. Pyramidal neurons were identified by their large amplitude (0.5-1.2 mV) and long-duration (0.8-1.2 ms) simple spikes alternating with complex spike discharges (Kandel and Spencer, 1961). The side barrels contained the following solutions: quisqualate (1.5 mM in 200 mM NaCl, pH 8), WAY 100635 (15 mM in 200 mM NaCl, pH 4), and 2 M NaCl used for automatic current balancing. Rats were mounted in the stereotaxic apparatus and the micropipettes were lowered at 4.2 mm lateral and 4.2 anterior to lambda into the CA3 sub-region of the dorsal hippocampus.
The firing activity of dorsal hippocampus pyramidal neurons was then recorded in the CA3 subfield, before and after systemic administration of the selective 5-HTLA antagonist WAY 100635.

Assay [3] has the same test system. The assay is described as follows: Acute i.v. prucalopride on firing of hippocampal CA3 pyramidal neurons, with microiontophoresis. Particulars: microiontophoretic application, 1 nA. As to the method: FIGS. 9A to 9D. FIGS. 9A and 9C show a typical example (integrated firing rate histogram) of the response of a single hippocampal pyramidal neuron of the CA3 sub-field to an acute, intravenous administration of the selective 5-HT4 agonist prucalopride (1000 μg/kg), and its reversal by local, microiontophoretic application of the selective 5-HT1A antagonist WAY 100635 (A), or systemic injection of the selective 5-HT4 antagonist GR 125487 (1000 μg/kg, i.v.) (C). Single-cell extracellular recordings were performed in the CA3 region of chloral-hydrate anaesthetized rats by using multiple-barrel glass microelectrodes, combined with microiontophoretic pumps (with the central barrel used for recordings). Pyramidal neurons were identified according to the classical criteria (see Example 5, experimental procedures). FIGS. 9B and 9D show a summary of the effects as for FIGS. 9A and 9C, respectively. Bar histograms represent the mean (S.E.M.) percentage effect, calculated for each neuron with respect to its basal firing rate (i.e. 100% value), and the number in each column represents the number of neurons tested. *p<0.05 vs basal value, one-way ANOVA.
as §1
Involvement of endogenous 5-HT and hippocampal 5-HT1A receptors in the effect of 5-HT4 agonists. […] This interpretation is consistent with our own previous findings, showing that both acute and chronic (3-day) administration of the same compounds augment DRN 5-HT neuronal firing activity (Lucas and Debonnel, 2002; Lucas et al., 2005). It is also in keeping with observations from a single in vivo microdialysis study, where acute systemic injection of preferential 5-HT4 agonists increased hippocampal 5-HT efflux (Ge and Barnes, 1996). To further address this possibility, two additional series of experiments were conducted. First, the role of endogenous 5-HT was assessed by using the same protocol as above, in rats co-treated with RS 67333 (or its vehicle) and the 5-HT depleter para-chlorophenylalanine (pCPA). […] The ejection currents of quisqualate needed to activate CA3 pyramidal neurons were, in this case, similar to those used in controls (0 to −2 nA, FIG. 8C). We then tested the ability of a local application of WAY 100635, directly into the CA3 subfield through the use of microiontophoresis, to modify the effect of a 5-HT4 agonist. We chose not to use the previous protocol (i.e. chronic treatments), because, as shown above, the required quisqualate currents differ between the experimental groups. Even though all currents were balanced, it was not possible to exclude the possibility that the amount of quisqualate present in the vicinity of the electrode may have an influence on the quantity of WAY 100635 actually ejected, and/or on its ability to act on pyramidal neurons. For this reason, prucalopride was used acutely in naïve rats, at a dose known to induce a significant augmentation of DRN 5-HT neuronal activity (1000 μg/kg, i.v.) (Lucas and Debonnel, 2002). […]

Setting [4] is: rats treated with RS 67333 1.5 mg/kg/day, 3 days.

Data on three compounds can be found in patent US20090170899A1, “Stimulators of 5-HT4 receptors and uses thereof” (priority 2004, published 2009).

Entries after “also recorded” stand apart in the source; their conditions may differ.

Consider `CN(C)CCCC1(c2ccc(F)cc2)OCc2cc(C#N)ccc21` (centres unmarked) [citalopram], for which the “slope of the dose-response curve” value in the assay with DRN 5-HT1A autoreceptors (RS 67333 group (1.5 mg/kg/day, 3 days)) is on record as −0.25±0.02; in the assay with DRN 5-HT1A autoreceptors (vehicle group), −0.34±0.03. For the same compound, the results for the “ED50 of inhibition of 5-HT neuronal firing rate” value in the assay with DRN 5-HT1A autoreceptors (naïve (vehicle) animals) and in the assay with DRN 5-HT1A autoreceptors (setting [4]) were 0.13 ± 0.03 mg/kg and 0.226 ± 0.026 mg/kg, respectively. Further, the entries for the “ED100 of inhibition of 5-HT neuronal firing rate” value in the assay on DRN 5-HT1A autoreceptors (naïve (vehicle) animals) and with DRN 5-HT1A autoreceptors (setting [4]) were 0.28 mg/kg and 0.43 mg/kg, respectively. For the same compound, the “change of total time of immobility in FST” value in assay [1] (Example 3, single i.p. 30 min before test, citalopram or paroxetine 10 mg/kg, prucalopride 2.5 mg/kg, RS 67333 1.5 mg/kg) was −34%. The “effect on immobility in FST” value in assay [1] (Example 4, citalopram 3 mg/kg i.p.) was “no effect”.
Take `COc1ccccc1N1CCN(CCN(C(=O)C2CCCCC2)c2ccccn2)CC1` [WAY 100635]: the “effect of WAY 100635 on CA3 pyramidal neurons” value in assay [2] (rat, in vivo, iv) is on record as “no effect; also recorded: without any effect”. In assay [3], the “effect of local WAY 100635 by itself” value was “devoid of any effect” and the “effect of local WAY 100635 on the inhibition by prucalopride” value is reported as “totally reversed”.
`N[C@@H](Cc1ccc(Cl)cc1)C(=O)O` (racemic) [pCPA, para-chlorophenylalanine]: in assay [2] (rats co-treated with RS 67333 and pCPA), the “quisqualate ejection currents needed to activate CA3 pyramidal neurons” value was 0 to −2 nA. In addition, in assay [2] (rats treated with RS 67333, pCPA 150 mg/kg i.p. 72, 48 and 24 h before), the “effect of pCPA on the facilitory action of WAY 100635” value was “totally abolished”. Further, in assay [2] (vehicle group), the “effect of pCPA on CA3 neuron firing activity and response to WAY 100635” value is “no effect per se”.
